Test results published in patent publication US20230167084A1, “TETRAHYDROISOQUINOLINE COMPOUNDS AS NRF2 ACTIVATORS” (C4X Discovery Limited, priority 2020, published 2023).

How the values were obtained:
[1] = target: T1, human KEAP1 (N-term, residues 321-609) (Homo sapiens, UniProt Q14145); test: KEAP1 Kelch Fluorescence Polarization (FP) Assay; type: binding; conditions: inhibition of Kelch domain-NRF2 interaction; 2 nM FITC-labelled NRF2 peptide, 25 nM KEAP1, 1 h at room temperature; compounds below 10 nM cannot be differentiated
T1 construct: human KEAP1 (N-term, residues 321-609) enzyme
T1 sequence (Q14145 321-609): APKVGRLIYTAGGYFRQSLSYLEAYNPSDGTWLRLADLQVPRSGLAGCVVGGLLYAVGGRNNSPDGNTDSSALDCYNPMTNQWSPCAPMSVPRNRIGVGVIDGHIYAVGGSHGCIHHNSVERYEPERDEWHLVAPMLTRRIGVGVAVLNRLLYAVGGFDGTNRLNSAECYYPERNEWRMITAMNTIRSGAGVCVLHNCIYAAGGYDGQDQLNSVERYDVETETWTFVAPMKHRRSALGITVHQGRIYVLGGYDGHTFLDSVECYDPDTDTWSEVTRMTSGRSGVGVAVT
Procedure: Inhibition of the Kelch domain-NRF2 interaction was determined using a fluorescence polarization-based competition assay in a black 384-well microplate. Compounds were tested at a starting concentration of 10 μM serially diluted 1:3 to generate a 12-point dose response curve on the Biomek FX robot. Each well contained 2 nM FITC-labelled NRF2 peptide (FITC-LDEETGEFL-NH2) and 25 nM human KEAP1 (N-term, residues 321-609) enzyme in a final volume of 20 μL of assay buffer (50 mM Tris-HCl pH 8.0, 100 mM NaCl, 5 mM MgCl2, 0.005% Tween-20, 0.005% BSA, 0.5% DMSO) in the presence of varying concentrations of test compound. Unlabelled peptide (LDEETGEFL-NH2) at 50 μM (negative control) and 0.5% DMSO (positive control) was used to determine the assay window.
After 1 h at room temperature, fluorescence polarization (excitation 470 nm/emission 530 nm) was measured using an Envision plate reader. IC50 values were determined by fitting the data to a four parameter logistic fit using XLfit or XE Runner within ActivityBase. The assay limit is such that compounds below 10 nM cannot be differentiated.

[2] = test system: NRF2 mediated gene NAD(P)H:quinone acceptor oxidoreductase 1 (NQO1) in BEAS-2B cells; test: Beas2B NQO1 mRNA Cell Based Assay; conditions: Homo sapiens, NQO1 mRNA increase compared to vehicle (0.1% DMSO), 24 h
Procedure: The up regulation of the NRF2 mediated gene NAD(P)H:quinone acceptor oxidoreductase 1 (NQO1) was measured using the following assay method: BEAS-2B cells (ATCC CRL-9609) were plated in 96-well clear plates at 20,000 cells/well in 75 μL of cell culture media and incubated overnight (37° C., 5% CO2). On day 2, 25 μL of compound or controls were added to the cells for 24 h. On day 3, the medium was aspirated from the plate and the Cells-to-CT™ 1-Step TaqMan® Kit (Ambion A25603) was used to perform expression analysis directly from cultured cells without RNA purification according to the manufacturer's instructions.
Briefly, cells were washed with ice cold PBS and 22.5 μL of room-temperature DNase/Lysis solution was added to the cells and incubated at room temperature for 5 minutes. To stop the reaction, 2.25 μL of stop solution was added to the cell lysate. The samples were diluted 1:5 using nuclease free water and 2.5 μL transferred into the PCR plate. Real-time PCR was performed using the C-1000 Thermal Cycler (Bio-Rad) using human beta actin as the internal control. The cDNA was amplified with a specific primer for NQO1 using the 1-step RT-PCR master mix (Ambion Cells-to-CT™ 1-Step TaqMan® Kit A25603). The primers/probes sets that were used for amplification of cDNA were obtained from TaqMan Gene Expression Assays (Applied Biosystems). The comparative CT (ΔΔCT) relative quantification method was used to calculate the relative mRNA level of the target gene NQO1 as described in the Applied Biosystems Chemistry Guide. The data are expressed as an increase in target gene mRNA compared to vehicle (0.1% DMSO) control and the EC50 values were determined by fitting the data to a four parameter logistic fit using XLfit or XE Runner within ActivityBase.

| Structure (SMILES) | IC50 [1] [nM] | EC50 [2] [nM] |
| --- | --- | --- |
| Cn1nnc(COc2c(F)cc(Cl)c3c2[C@@H](CN2CC4(CC4)CC2=O)N(C(=O)[C@@H]2CCCC[C@]2(C)c2nnn[nH]2)CC3)c1C(F)F [Example 1, 5-(((S)-5-chloro-8-((5-(difluoromethyl)-1-methyl-1H-1,2,3-triazol-4-yl)methoxy)-7-fluoro-2-((1R,2S)-2-methyl-2-(1H-tetrazol-5-yl)cyclohexane-1-carbonyl)-1,2,3,4-tetrahydroisoquinolin-1-yl)methyl)-5-azaspiro[2.4]heptan-6-one] | 4.8 | 6.8 |
| Cn1nnc(COc2c(F)cc(Cl)c3c2[C@@H](CN2CCOCC2=O)N(C(=O)[C@@H]2CCCC[C@]2(C)C(=O)O)CC3)c1C(F)F [Example 2, (1S,2R)-2-((S)-5-chloro-8-((5-(difluoromethyl)-1-methyl-1H-1,2,3-triazol-4-yl)methoxy)-7-fluoro-1-((3-oxomorpholino)methyl)-1,2,3,4-tetrahydroisoquinoline-2-carbonyl)-1-methylcyclohexane-1-carboxylic acid] | 5.4 | 1.3 |
| C[C@@H]1CC(=O)N(C[C@@H]2c3c(c(Cl)cc(F)c3OCc3nnn(C)c3C(F)F)CCN2C(=O)[C@@H]2CCCC[C@]2(C)C(=O)O)C1 [Example 3, (1S,2R)-2-((S)-5-chloro-8-((5-(difluoromethyl)-1-methyl-1H-1,2,3-triazol-4-yl)methoxy)-7-fluoro-1-(((R)-4-methyl-2-oxopyrrolidin-1-yl)methyl)-1,2,3,4-tetrahydroisoquinoline-2-carbonyl)-1-methylcyclohexane-1-carboxylic acid] | 4.4 | 2.1 |
| C[C@]1(C(=O)O)CCC[C@H]1C(=O)N1CCc2c(Cl)cc(F)c(OCc3nnn4c3CCCC4)c2[C@H]1CN1CC2(CC2)CC1=O [Example 4, (1S,2R)-2-((S)-5-chloro-7-fluoro-1-((6-oxo-5-azaspiro[2.4]heptan-5-yl)methyl)-8-((4,5,6,7-tetrahydro-[1,2,3]triazolo[1,5-a]pyridin-3-yl)methoxy)-1,2,3,4-tetrahydroisoquinoline-2-carbonyl)-1-methylcyclopentane-1-carboxylic acid] | 5 | 0.3 |
| Cc1nnc(COc2c(F)cc(Cl)c3c2[C@@H](CN2CC4(CC4)CC2=O)N(C(=O)[C@@H]2CCCC[C@]2(C)C(=O)O)CC3)n1C [Example 5, (1S,2R)-2-((S)-5-chloro-8-((4,5-dimethyl-4H-1,2,4-triazol-3-yl)methoxy)-7-fluoro-1-((6-oxo-5-azaspiro[2.4]heptan-5-yl)methyl)-1,2,3,4-tetrahydroisoquinoline-2-carbonyl)-1-methylcyclohexane-1-carboxylic acid] | 4.9 | 0.5 |
| Cn1cc(COc2c(F)cc(Cl)c3c2[C@@H](CN2CC4(CC4)CC2=O)N(C(=O)[C@@H]2CCCC[C@]2(C)C(=O)O)CC3)nn1 [Example 6, (1S,2R)-2-((S)-5-chloro-7-fluoro-8-((1-methyl-1H-1,2,3-triazol-4-yl)methoxy)-1-((6-oxo-5-azaspiro[2.4]heptan-5-yl)methyl)-1,2,3,4-tetrahydroisoquinoline-2-carbonyl)-1-methylcyclohexane-1-carboxylic acid] | 5 | 1 |
